Target: c-kit receptor (Homo sapiens, UniProt P10721)
Settings: MDA-MB-361 cells, SCF ligand present, three-day culture, STI-571 1 μM to 40 μM, 50 μg total protein lysate, FIG. 4

Chain of c-kit receptor (P10721 26-976): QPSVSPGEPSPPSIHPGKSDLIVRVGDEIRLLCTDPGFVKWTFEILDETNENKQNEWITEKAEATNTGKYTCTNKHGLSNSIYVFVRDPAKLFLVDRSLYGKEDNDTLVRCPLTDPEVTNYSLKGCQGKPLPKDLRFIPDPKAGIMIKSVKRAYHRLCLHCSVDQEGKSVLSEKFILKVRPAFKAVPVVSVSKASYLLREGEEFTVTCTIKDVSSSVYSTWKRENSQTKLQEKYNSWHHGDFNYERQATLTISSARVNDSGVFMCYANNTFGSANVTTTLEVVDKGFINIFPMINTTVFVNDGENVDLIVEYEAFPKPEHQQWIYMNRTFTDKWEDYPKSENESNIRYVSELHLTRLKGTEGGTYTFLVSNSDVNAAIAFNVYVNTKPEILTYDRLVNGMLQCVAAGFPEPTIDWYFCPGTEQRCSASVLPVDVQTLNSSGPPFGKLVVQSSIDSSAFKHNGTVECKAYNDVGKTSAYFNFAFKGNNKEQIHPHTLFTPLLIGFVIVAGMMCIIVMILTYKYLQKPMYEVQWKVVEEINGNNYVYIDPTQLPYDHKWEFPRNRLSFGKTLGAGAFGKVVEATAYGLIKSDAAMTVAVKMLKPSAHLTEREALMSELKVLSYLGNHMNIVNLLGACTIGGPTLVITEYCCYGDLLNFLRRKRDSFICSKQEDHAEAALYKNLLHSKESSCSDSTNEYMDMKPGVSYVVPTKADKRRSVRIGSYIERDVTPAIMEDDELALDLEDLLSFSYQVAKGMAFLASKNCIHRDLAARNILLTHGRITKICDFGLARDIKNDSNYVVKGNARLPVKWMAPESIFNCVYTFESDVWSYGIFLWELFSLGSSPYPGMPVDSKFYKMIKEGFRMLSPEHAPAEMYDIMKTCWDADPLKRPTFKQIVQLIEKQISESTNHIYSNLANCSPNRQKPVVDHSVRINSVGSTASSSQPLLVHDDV

STI-571 concentration at which SCF-induced c-kit activation is inhibited (no 145 kDa activated c-kit band): ≤ 1 µM
SMILES: Cc1ccc(NC(=O)c2ccc(CN3CCN(C)CC3)cc2)cc1Nc1nccc(-c2cccnc2)n1 [STI-571]
